Reference: publication PMC6295574, “Molecular and Functional Characterization of Odorant Binding Protein 7 From the Oriental Fruit Moth Grapholita molesta (Busck) (Lepidoptera: Tortricidae)” (Frontiers in Physiology, 2018)
“Also recorded” adds a separate entry of the source. Where two headings read alike, the source gives them in different places.

Experiments:
[1] = target: T1, rGmolOBP7 (recombinant GmolOBP7) (Grapholita molesta, UniProt A0A2R4SBC1); test: biochemical; format: binding; conditions: for binding to rGmolOBP7 (in words): competitive binding, 1-NPN probe
Description: (§1) Fluorescence intensity was detected on a spectrophotofluorometer (F-4500, Hitachi, Japan) at room temperature using a quartz cuvette with a 1 cm light path. The silt width of excitation and emissions were all 10 nm. The fluorescence probe 1-NPN was excited at 337 nm and the emission spectra were recorded between 370 and 550 nm. Four sex pheromone components and 31 volatiles, derived from peach shoots and pear fruits, were selected for binding assays (Table 2). The probe 1-NPN and tested ligands were all dissolved in spectrophotometric-grade methanol to obtain a 1 mM stock solution.
The corresponding florescence intensity values were collected as three independent measurements. The binding constant (K1−NPN) of 1-NPN to rGmolOBP7 was calculated using GraphPad Prism 5 software (GraphPad Software, Inc.) via nonlinear regression for a unique site of binding.

[2] = test system: Grapholita molesta antennae; test: EAG responses of GmolOBP7-dsRNA-injected moths to stimulants; conditions: stimulant 10 mg/mL in liquid paraffin; for EAG response of dsRNA-treated moths vs non-injected control: male and female moths, 1-day-old; for EAG response of dsGmolOBP7-injected male moths vs dsGFP-injected and non-injected controls: 1-day-old males
Description: Based on the expression patterns observed at different insect stages, 5-day-old G. molesta pupae (later-pupae) were selected to receive a dsRNA microinjection. The conjunctivum between the prothorax and mesothorax, the conjunctivum between the mesothorax and metathorax and the conjunctivum between the thorax and abdomen were initially selected as putative injection sites. Then, 39, 69, and 138 nL of RNase-free H2O were injected into different conjunctiva, respectively. A total of 69 nL (approximately 241.5 ng dsRNA) of dsGmolOBP7 or dsGFP was injected into the appropriate injection sites of each 5-day-old pupa, by using a PL1-100 Pico-Injector (Harvard Apparatus, Holliston, MA, USA) operated by an MP-255 Micromanipulator (Sutter, Novato, CA, USA). Each type of dsRNA was injected into 600 male and 600 female moths. The heads (with antenna) of 1-, 2-, 3-, and 4 day-old adults were dissected and immediately stored at −80°C prior to use. The total RNA and first-strand cDNA were obtained in accordance with previous methods. The specimens were used for qRT-PCR analysis to test the reduction in GmolOBP7 transcription. Experiments were performed with three biological replicates and three technical replicates.
EAG responses of dsRNA-injected (including dsGmolOBP7 and dsGFP) moths and non-injected controls, to sex pheromones and host plant volatiles were detected using Electroantennography. All stimulants were diluted with liquid paraffin to the final concentration of 10 mg/mL. Liquid paraffin and cis-3-hexenyl acetate were used as the blank and reference control, respectively. Both ends of adult antennae were cut and blocked with a drop of Spectra® 360 Electrode Gel (Parker Laboratories, Fairfield, USA). The basal section was connected to the reference electrode while the distal end was linked to the recording electrode. A filtered humidified air stream was delivered by a Syntech stimulus controller (CS55 model, Syntech, Germany) at a constant flow rate of 50 cm/s, and the time of stimuli flow was 0.5 s. Filter paper strips (0.6 cm × 4.5 cm) were dripped with 15 μL of chemical solution as a stimulus source and inserted into a 1.5 mL micropipet tip. A set of stimulants consisted of four sex pheromones and five host-plant volatiles which can be strongly bound with rGmolOBP7. Each antenna measured the group of randomly arranged stimulants described above. The antennae were stimulated one time with liquid paraffin and cis-3-hexenyl acetate and dissolved in solvent, before and after each group stimulation, in order to ensure the tested antenna were activated and the connecting pipe was not contaminated by stimulants. Recordings per stimulant were taken and the antennal responses were recorded. Eight male and female antennae were measured for each stimulant. The paired t-test was used to determine whether the difference in EAG values were significant between the dsRNA injected moths (dsGmolOBP7 and dsGFP) and the non-injected control. All the data were analyzed using SPSS 18.0 software (SPSS Inc., Chicago, IL, USA).

[3] = test system: male antennae of G. molesta; set-up: method as in Cardé et al., 1975, 1979; conditions: ref Cardé et al., 1975, 1979; cited from earlier work
[4] = target: T1, rGmolOBP7 (recombinant GmolOBP7); test: Binding of fluorescence probe 1-NPN to rGmolOBP7 (binding curve, Scatchard plot); conditions: 2 μM protein in 20 mM Tris-HCl pH 7.4, 1-NPN up to 18 μM; read-out: dissociation constant (Kd) of 1-NPN
Description: as §1, with “solution. The binding affinity of rGmolOBP7 with 1-NPN was measured by adding aliquots of 1-NPN to a 2 μM protein solution (diluted with 20 mM Tris-HCl pH 7.4) to final concentrations of 0 to 18 μM.” for “solution.”
The corresponding florescence intensity values were collected as three independent measurements. The binding constant (K1−NPN) of 1-NPN to rGmolOBP7 was calculated using GraphPad Prism 5 software (GraphPad Software, Inc.) via nonlinear regression for a unique site of binding. The dissociation constant (Ki) of each ligands competitive binding to rGmolOBP7, were calculated from the corresponding IC50, by using the equation Ki = [IC50]/(1+[1-NPN]/K1−NPN), where [1-NPN] is the free concentration of 1-NPN, and K1−NPN is the dissociation constant of the complex protein/1-NPN.

[5] = 2 μM rGmolOBP7 and 2 μM 1-NPN, 20 mM Tris-HCl pH 7.4, room temperature, three independent measurements, read-out: IC50
[6] = calculated from IC50 by Ki = [IC50]/(1+[1-NPN]/K1-NPN), read-out: Ki

T1 sequence (A0A2R4SBC1 entry or part of it): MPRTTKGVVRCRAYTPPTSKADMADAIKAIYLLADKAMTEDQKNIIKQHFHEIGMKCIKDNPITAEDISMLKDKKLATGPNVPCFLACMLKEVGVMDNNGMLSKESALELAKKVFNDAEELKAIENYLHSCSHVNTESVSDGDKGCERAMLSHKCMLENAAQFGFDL

| IC50 [1, 5] | Ki [1, 6] | Compound | IC50 [1] | Ki [1] | further results |
| --- | --- | --- | --- | --- | --- |
| 11.1 ± 0.2 µM | 7.75 µM | C=C/C(C)=C/CCC(=C)C [α-Ocimene] |  |  | EAG response of dsRNA-treated moths vs non-injected control [2]: not significantly different |
|  |  | CC/C=C\CCO [(Z)-3-Hexen-1-ol] | 17.6 ± 0.52 µM | 12.3 µM |  |
|  |  | CCCCCCCCCCO [1-Decanol] | > 35 µM | > 35 µM |  |
|  |  | CC1=CCC2CC1C2(C)C (stereo not drawn) [α-Pinene] | 17.1 ± 1.2 µM | 11.9 µM | EAG response of dsRNA-treated moths vs non-injected control [2]: not significantly different |
| > 35 µM | > 35 µM | CCCCCCCCCCCCCCCCO [1-Hexadecanol] |  |  |  |
|  |  | C=CC(C)(O)CCC=C(C)C (stereo not drawn) [Linalool] | 21.7 ± 1.11 µM | 15.1 µM |  |
| > 35 µM | > 35 µM | CCC(C)=CCCC(C)=CC#N [Lemonile] |  |  |  |
|  |  | CCC/C=C/C=O [(E)-2-Hexenal] | 24.4 ± 1.53 µM | 17 µM |  |
|  |  | CCC/C=C\CCCCCCCOC(C)=O [(Z)-8-dodecenyl acetate] |  |  | binding to rGmolOBP7 (in words) [1]: did not bind; EAG response of dsRNA-treated moths vs non-injected control [2]: not significantly different |
| > 35 µM | > 35 µM | CCC/C=C/CCCCCCCOC(C)=O [(E)-8-dodecenyl acetate] |  |  | binding to rGmolOBP7 (in words) [1]: did not bind; EAG response of dsRNA-treated moths vs non-injected control [2]: not significantly different |
| 24.4 ± 0.77 µM | 17 µM | CCCCCC(=O)OCCCC [Butyl hexanoate] |  |  |  |
|  |  | COC(=O)c1ccccc1O [Methyl salicylate] | 14.1 ± 0.22 µM | 9.81 µM |  |
| 28.6 ± 3.38 µM | 19.9 µM | CCCCCCCCC=O [Nonanal] |  |  |  |
| > 35 µM | > 35 µM | CCCCCCCCCCCCCCCC(=O)OC [Methyl palmitate] |  |  |  |
| 19.6 ± 0.27 µM | 13.7 µM | CC/C=C\CCOC(C)=O [(Z)-3-Hexenyl acetate] |  |  | EAG response of dsRNA-treated moths vs non-injected control [2]: not significantly different |
| > 35 µM | > 35 µM | CCC/C=C\CCCCCCCO [(Z)-8-dodecenyl alcohol] |  |  | binding to rGmolOBP7 (in words) [1]: did not bind; EAG response of dsRNA-treated moths vs non-injected control [2]: not significantly different |
|  |  | OCc1ccccc1 [Benzyl alcohol] | > 35 µM | > 35 µM |  |

| IC50 [1, 5] | Ki [1, 6] | Compound | IC50 [1] | Ki [1] | further results |
| --- | --- | --- | --- | --- | --- |
| 10.7 ± 0.85 µM | 7.48 µM | CCCCCCCCCCCCO [1-Dodecanol] |  |  | EAG response of dsGmolOBP7-injected male moths vs dsGFP-injected and non-injected controls ([2]; 15 μL): significantly reduced; EAG response of dsGmolOBP7-injected male moths vs dsGFP-injected and non-injected controls ([2]; 15 μL, listed as 12:OH): significantly decreased; EAG response of male antennae [3]: weak EAG response |
|  |  | CCCCCCCCCCCCCCO [1-Tetradecanol] | > 35 µM | > 35 µM |  |
|  |  | CCCCOC(C)=O [Butyl acetate] | 18.1 ± 1.57 µM | 12.6 µM |  |
| 3.62 ± 0.25 µM | 2.52 µM | CCCCC/C=C\C=C\C(=O)OCC [Pear ester, Ethyl (E, Z)-2,4-decadienate] |  |  | EAG response of dsGmolOBP7-injected female moths vs dsGFP-injected and non-injected controls ([2]; 1-day-old females, 15 μL): significantly reduced; also recorded: significantly decreased; EAG response of dsGmolOBP7-injected male moths vs dsGFP-injected and non-injected controls ([2]; 15 μL): significantly reduced; also recorded: significantly decreased |
| 18.2 ± 1.27 µM | 12.7 µM | CCCCCCCCCC=O [Decanal] |  |  |  |
| > 35 µM | > 35 µM | CCCCCCCCCCCCCC=O [Tetradecanal] |  |  |  |
|  |  | C=C1CC/C=C(\C)CC[C@@H]2[C@@H]1CC2(C)C [β-Caryophyllene] | > 35 µM | > 35 µM |  |
| 18.7 ± 0.22 µM | 13 µM | CC/C=C\CC1C(=O)CCC1CC(=O)OC (stereo not drawn) [Methyl jasmonate] |  |  |  |
| 16.3 ± 1.71 µM | 11.3 µM | CCCCOC(=O)CCC [Butyl butyrate] |  |  |  |
|  |  | CCCCCC=O [Hexanal] | 27.4 ± 1.59 µM | 19.1 µM |  |
| > 35 µM | > 35 µM | C=CC(C)(O)CCC=C(C)CCC=C(C)C (mixture of isomers) [Nerolidol] |  |  |  |
| > 35 µM | > 35 µM | CCCCCCCCCCCCCC(=O)OC [Methyl myristate] |  |  |  |
|  |  | c1ccc(Nc2cccc3ccccc23)cc1 [1-NPN, N-phenyl-1-naphthylamine] |  |  | Kd [4]: 2.3 µM |
|  |  | O=Cc1ccccc1 [Benzaldehyde] | 20.2 ± 0.27 µM | 14.1 µM |  |
|  |  | N#Cc1ccccc1 [Benzonitrile] | 17.9 ± 1.29 µM | 12.5 µM |  |
| > 35 µM | > 35 µM | C=C1[C@@H]2CC[C@@H](C2)C1(C)C [(-)-Camphene] |  |  |  |

| Compound | IC50 [1, 5] | Ki [1, 6] | IC50 [1] | Ki [1] | further results |
| --- | --- | --- | --- | --- | --- |
| CCCCCCO [1-Hexanol] |  | 17.4 µM | 24.9 ± 1.28 µM |  |  |
| CCCCCCCCCCCC=O [Lauraldehyde] | 6.18 ± 0.43 µM | 4.31 µM |  |  | EAG response of dsRNA-treated moths vs non-injected control [2]: not significantly different |
| CCCCCCC=O [Heptanal] |  | 10.9 µM | 15.7 ± 0.64 µM |  |  |
